In publication PMC7447754 (Nature Communications, 2020):
Where a SMILES comes first, the peptide text is derived from it.

System: H1N1 virus
Conditions: pH 4.9

CC[C@H](C)[C@H](NC(=O)[C@H](C)NC(=O)CNC(=O)[C@@H](N)CC(N)=O)C(=O)N[C@@H](CS)C(=O)N[C@@H](Cc1c[nH]c2ccccc12)C(=O)NCC(=O)N1CCC[C@H]1C(=O)N[C@@H](CS)C(=O)N1CCC[C@H]1C(=O)N[C@H](C(=O)N[C@@H](C)C(=O)N[C@@H](Cc1ccccc1)C(=O)N[C@@H](CCCNC(=N)N)C(=O)N[C@@H](CCC(N)=O)C(=O)N[C@H](C(=O)NCC(=O)N[C@@H](CC(N)=O)C(=O)N[C@@H](CS)C(=O)NCC(=O)N[C@@H](CCCNC(=N)N)C(=O)N[C@@H](Cc1ccccc1)C(=O)N[C@@H](CCCNC(=N)N)C(=O)N[C@H](C(=O)N[C@@H](CCCNC(=N)N)C(=O)N[C@@H](CS)C(=O)N[C@@H](CS)C(=O)N[C@@H](CCCNC(=N)N)C(=O)N[C@H](C(=O)N[C@@H](CCCNC(=N)N)C(=O)O)[C@@H](C)CC)C(C)C)[C@@H](C)CC)[C@@H](C)O [P9R] (H-NGAICWGPCPTAFRQIGNCGRFRVRCCRIR-OH)
inhibition of viral fusion (virus-induced hemolysis): did not inhibit viral fusion
